Experimental findings from patent publication US10851073B2, “Protein tyrosine phosphatase inhibitors and methods of use thereof” (Calico Life Sciences LLC, priority 2019, dated 2020) are described below.

The structures appear in SMILES notation.

The target in test [1] is T1, His tagged PTPN2 (TC45) protein (Homo sapiens, UniProt P17706).
T1 construct: made in house
T1 sequence (P17706 with tags, fused parts or gaps isoform P17706-2): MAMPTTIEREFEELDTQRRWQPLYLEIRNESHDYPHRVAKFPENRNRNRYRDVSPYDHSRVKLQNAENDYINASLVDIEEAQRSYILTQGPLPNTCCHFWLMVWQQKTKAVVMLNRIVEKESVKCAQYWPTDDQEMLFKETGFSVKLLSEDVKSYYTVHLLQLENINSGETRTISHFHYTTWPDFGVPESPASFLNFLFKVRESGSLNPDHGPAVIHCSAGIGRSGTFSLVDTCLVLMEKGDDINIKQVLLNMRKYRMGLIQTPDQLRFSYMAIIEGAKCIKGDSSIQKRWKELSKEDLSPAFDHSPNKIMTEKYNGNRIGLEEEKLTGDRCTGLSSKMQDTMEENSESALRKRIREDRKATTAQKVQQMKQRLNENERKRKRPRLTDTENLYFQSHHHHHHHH
The test can be described thus: Mobility shift assay used to determine potency of PTPN2 inhibitors. The settings on record: enzyme 0.5 nM, substrate 2 μM; read-out: PTPN2 MSA IC50. It is filed as biochemical. The protocol:
Example 227: Mobility Shift Assay Used to Determine Potency of PTPN2 Inhibitors
Compound activity was determined using in house His tagged PTPN2 (TC45) protein (SEQ ID NO: 1) in an in vitro enzymatic reaction. The enzymatic assay used to determine activity was a mobility shift assay using a LabChip EZ Reader by Caliper Life Sciences. The enzymatic reaction was carried out in assay buffer (50 mM HEPES pH 7.5, 1 mM EGTA, 10 mM EDTA, 0.01% Tween® 20, and 2 mM DTT). The compounds were dispensed on a white 384 well ProxiPlate™ (PerkinElmer Catalog #6008289) plate using the Labcyte Echo at varying concentrations (12 point, 1:3 dilution). The enzyme (at 0.5 nM) was incubated with compound for 10 minutes at room temperature. Then the substrate (phosphorylated insulin receptor probe sequence: ((OG488)-(NH—CH2—CH2—O—CH2—CH2—O—CH2—CO)-T-R-D-I-(PY)-E-T-D-Y-Y-R-K-K-NH2) (SEQ ID NO: 2) was added at 2 μM to the plates and incubated for another 10 minutes at room temperature. Finally, a quench solution (water and 4-bromo-3-(2-oxo-2-propoxyethoxy)-5-(3-{[1-(phenylmethanesulfonyl)piperidin-4-yl]amino}phenyl)thiophene-2-carboxylic acid) was added to the plates, which were then run on the EZ Reader (excitation 488 nm, emission 530 nm) to measure % conversion (the amount of phosphorylated substrate which was de-phosphorylated by PTPN2). […] The % inhibition was then used to calculate the IC50 values.

The target of test [2] is T2, His tagged full-length PTPN1 protein (Homo sapiens, UniProt P18031).
T2 construct: made in house
T2 sequence (P18031 with tags, fused parts or gaps): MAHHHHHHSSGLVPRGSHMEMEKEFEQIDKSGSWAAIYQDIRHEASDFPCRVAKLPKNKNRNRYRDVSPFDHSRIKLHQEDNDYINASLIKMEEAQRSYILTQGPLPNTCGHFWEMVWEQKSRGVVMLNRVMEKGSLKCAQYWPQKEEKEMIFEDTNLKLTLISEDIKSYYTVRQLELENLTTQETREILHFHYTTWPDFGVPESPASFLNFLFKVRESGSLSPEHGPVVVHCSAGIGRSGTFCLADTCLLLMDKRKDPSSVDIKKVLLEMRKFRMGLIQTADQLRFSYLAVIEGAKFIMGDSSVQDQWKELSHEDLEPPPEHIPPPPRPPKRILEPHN
As to the kind of experiment: Mobility shift assay (MSA) used to determine potency of PTPN1 inhibitors. It is filed as biochemical. The settings on record: enzyme 0.5 nM, substrate 2 μM. Here is the method:
Example 228: Mobility Shift Assay (MSA) Used to Determine Potency of PTPN1 Inhibitors
Compound activity was determined using in house His tagged full-length PTPN1 protein (SEQ ID NO: 3) in an in vitro enzymatic reaction. The enzymatic assay used to determine activity is a mobility shift assay using a LabChip EZ Reader by Caliper Life Sciences. The enzymatic reaction was carried out in assay buffer (50 mM HEPES pH 7.5, 1 mM EGTA, 10 mM EDTA, 0.01% Tween® 20, and 2 mM DTT). The compounds were dispensed on a white 384 well ProxiPlate™ (PerkinElmer Cat^# 6008289) plate using a Labcyte Echo® liquid handler at varying concentrations (12 point, 1:3 dilution). The enzyme (at 0.5 nM) was incubated with compound for 10 minutes at room temperature. Then the substrate (phosphorylated insulin receptor probe sequence: ((OG488)-(NH—CH2—CH2—O—CH2—CH2—O—CH2—CO)-T-R-D-I-(PY)-E-T-D-Y-Y-R-K-K-NH2) (SEQ ID NO: 2) was added at 2 μM to the plates and incubated for another 10 minutes at room temperature. Finally, a quench solution (water and 4-bromo-3-(2-oxo-2-propoxyethoxy)-5-(3-{[1-(phenylmethanesulfonyl)piperidin-4-yl]amino}phenyl)thiophene-2-carboxylic acid) was added to the plates, which were then run on the EZ Reader (excitation 488 nm, emission 530 nm) to measure % conversion (the amount of phosphorylated substrate which was de-phosphorylated by PTPN1). […] The % inhibition was then used to calculate the IC50 values.

As a reminder, the IC50 is the concentration that inhibits the measured activity by half. In the case of `COCC(C)(C)CCNC1CCc2cc(O)c(N3CC(=O)NS3(=O)=O)c(F)c2C1` (centres unmarked) [Compound 121, 5-{1-fluoro-3-hydroxy-7-[(4-methoxy-3,3-dimethylbutyl)amino]-5,6,7,8-tetrahydronaphthalen-2-yl}-1λ^6,2,5-thiadiazolidine-1,1,3-trione], the IC50 in test [1] fell in the range of 1 to 10 nM; in test [2], 10 to 100 nM.
With `CC(CCN1CCc2cc(O)c(N3CC(=O)NS3(=O)=O)c(F)c2C1)CC(C)(C)C` (centres unmarked) [Compound 302, 5-[8-fluoro-6-hydroxy-2-(3,5,5-trimethylhexyl)-1,2,3,4-tetrahydroisoquinolin-7-yl]-1λ^6,2,5-thiadiazolidine-1,1,3-trione], the IC50 in test [1] is 1 to 10 nM; in test [2], 10 to 100 nM.
On the same counts, the results for `CC(C)(O)CCOC1CCc2c(cc(O)c(N3CC(=O)NS3(=O)=O)c2F)C1` (centres unmarked) [Compound 309, 5-[1-fluoro-3-hydroxy-6-(3-hydroxy-3-methylbutoxy)-5,6,7,8-tetrahydronaphthalen-2-yl]-1λ^6,2,5-thiadiazolidine-1,1,3-trione] are 10 to 100 nM and 10 to 100 nM.
Turning to `O=C1CN(c2c(O)cc3c(c2F)C[C@@H](NCCCC(F)(F)F)CC3)S(=O)(=O)N1` (single isomer, unassigned) [Compound 147], the IC50 in test [1] and in test [2] was 10 to 100 nM throughout.
Consider `CC(O)CCOC(=O)N1CCc2cc(O)c(N3CC(=O)NS3(=O)=O)c(F)c2C1` (centres unmarked) [Compound 171, 3-hydroxybutyl 8-fluoro-6-hydroxy-7-(1,1,4-trioxo-1λ^6,2,5-thiadiazolidin-2-yl)-3,4-dihydroisoquinoline-2(1H)-carboxylate], for which the IC50 in test [1] and in test [2] was 1 to 10 nM throughout.
For the compound `O=C1CN(c2c(O)cc3c(c2F)CCC(OCC2CC2)C3)S(=O)(=O)N1` (centres unmarked) [Compound 310, 5-[6-(cyclopropylmethoxy)-1-fluoro-3-hydroxy-5,6,7,8-tetrahydronaphthalen-2-yl]-1λ^6,2,5-thiadiazolidine-1,1,3-trione], the IC50 in test [1] and in test [2] was 10 to 100 nM throughout.
As to `CC(C)CNCC1Cc2cc(O)c(N3CC(=O)NS3(=O)=O)c(F)c2C1` (centres unmarked) [Compound 275, 5-(4-fluoro-6-hydroxy-2-{[(2-methylpropyl)amino]methyl}-2,3-dihydro-1H-inden-5-yl)-1λ^6,2,5-thiadiazolidine-1,1,3-trione], the IC50 in test [1] and in test [2] was 10 to 100 nM each time.
With `NCCOC1CCc2c(cc(O)c(N3CC(=O)NS3(=O)=O)c2F)C1` (centres unmarked) [Compound 319, 5-[6-(2-aminoethoxy)-1-fluoro-3-hydroxy-5,6,7,8-tetrahydronaphthalen-2-yl]-1λ^6,2,5-thiadiazolidine-1,1,3-trione], the IC50 in test [1] is 10 to 100 nM; in test [2], above 100 nM.
On the same counts, the results for `O=C1CN(c2c(O)cc3c(c2F)CC(C2CCN(CC4CC4)C2)CC3)S(=O)(=O)N1` (mixture of isomers) [Compound 140, 5-{7-[1-(cyclopropylmethyl)pyrrolidin-3-yl]-1-fluoro-3-hydroxy-5,6,7,8-tetrahydronaphthalen-2-yl}-1λ^6,2,5-thiadiazolidine-1,1,3-trione] are 10 to 100 nM and 10 to 100 nM.
Taken in the same sequence, the figures for `CC(C)CCOC1CCc2cc(O)c(N3CC(=O)NS3(=O)=O)c(F)c2C1` (centres unmarked) [Compound 100, 5-[1-fluoro-3-hydroxy-7-(3-methylbutoxy)-5,6,7,8-tetrahydronaphthalen-2-yl]-1λ^6,2,5-thiadiazolidine-1,1,3-trione] were 10 to 100 nM and 1 to 10 nM.
On to `CC(C)OCCNC1CCc2cc(O)c(N3CC(=O)NS3(=O)=O)c(F)c2C1` (centres unmarked) [Compound 186, 5-[1-fluoro-3-hydroxy-7-({2-[(propan-2-yl)oxy]ethyl}amino)-5,6,7,8-tetrahydronaphthalen-2-yl]-1λ^6,2,5-thiadiazolidine-1,1,3-trione], for which the IC50 in test [1] and in test [2] was 10 to 100 nM each time.
Regarding `Cc1noc(C)c1CCNC1CCc2cc(O)c(N3CC(=O)NS3(=O)=O)c(F)c2C1` (centres unmarked) [Compound 290, 5-(7-{[2-(3,5-dimethyl-1,2-oxazol-4-yl)ethyl]amino}-1-fluoro-3-hydroxy-5,6,7,8-tetrahydronaphthalen-2-yl)-1λ^6,2,5-thiadiazolidine-1,1,3-trione], the IC50 in test [1] and in test [2] was 1 to 10 nM in each case.
Turning to `CC(C)(CCN[C@H]1CCc2cc(O)c(N3CC(=O)NS3(=O)=O)c(F)c2C1)C(F)(F)F` (single isomer, unassigned) [Compound 176], the IC50 in test [1] and in test [2] was 10 to 100 nM each time.
In the case of `O=C1CN(c2c(O)cc3c(c2F)C[C@@H]([C@H]2CCNC2)CC3)S(=O)(=O)N1` (single isomer, unassigned) [Compound 138, 5-{(7RS)-1-fluoro-3-hydroxy-7-[(3SR)-pyrrolidin-3-yl]-5,6,7,8-tetrahydronaphthalen-2-yl}-1λ^6,2,5-thiadiazolidine-1,1,3-trione], the IC50 in test [1] and in test [2] was 10 to 100 nM throughout.
On to `O=C1CN(c2c(O)cc3c(c2F)CN(CCC24CCC(CC2)C4)CC3)S(=O)(=O)N1` [Compound 239, 5-{2-[2-(bicyclo[2.2.1]heptan-1-yl)ethyl]-8-fluoro-6-hydroxy-1,2,3,4-tetrahydroisoquinolin-7-yl}-1λ^6,2,5-thiadiazolidine-1,1,3-trione], for which the IC50 in test [1] and in test [2] was 1 to 10 nM each time.
Take `O=C1CN(c2c(O)cc3c(c2F)CC(CCC2CC2)CC3)S(=O)(=O)N1` (centres unmarked) [Compound 105, 5-[7-(2-cyclopropylethyl)-1-fluoro-3-hydroxy-5,6,7,8-tetrahydronaphthalen-2-yl]-1λ^6,2,5-thiadiazolidine-1,1,3-trione]: the IC50 in test [1] and in test [2] was 1 to 10 nM each time.
For `COC1CCc2cc(O)c(N3CC(=O)NS3(=O)=O)c(F)c2C1` (centres unmarked) [Compound 110, 5-(1-fluoro-3-hydroxy-7-methoxy-5,6,7,8-tetrahydronaphthalen-2-yl)-1λ^6,2,5-thiadiazolidine-1,1,3-trione], the IC50 in test [1] and in test [2] was 10 to 100 nM each time.
With `CC(C)CCN(CCc1ccccn1)C1CCc2cc(O)c(N3CC(=O)NS3(=O)=O)c(F)c2C1` (centres unmarked) [Compound 167, 5-(1-fluoro-3-hydroxy-7-{(3-methylbutyl)[2-(pyridin-2-yl)ethyl]amino}-5,6,7,8-tetrahydronaphthalen-2-yl)-1λ^6,2,5-thiadiazolidine-1,1,3-trione], the IC50 in test [1] lay within 1 to 10 nM; in test [2], 10 to 100 nM.
Turning to `CC(C)CC(=N)NC1CCc2cc(O)c(N3CC(=O)NS3(=O)=O)c(F)c2C1` (centres unmarked) [Compound 195, N-[8-fluoro-6-hydroxy-7-(1,1,4-trioxo-1λ^6,2,5-thiadiazolidin-2-yl)-1,2,3,4-tetrahydronaphthalen-2-yl]-3-methylbutanimidamide], the IC50 in test [1] and in test [2] was 10 to 100 nM each time.
